Where a SMILES comes first, the peptide text is derived from it. [ ]: non-standard residue; d: D form. Dopa = N[C@@H](Cc1ccc(O)c(O)c1)C(=O)O; Cha = N[C@@H](CC1CCCCC1)C(=O)O
How the values were obtained:
[1] = Raman spectroscopy of secondary structure of the peptides; format: physicochemical; details: 1×PBS, 5 mg/mL, integrated area under Raman peak
Procedure: In one embodiment, the secondary structure of the IIZDoK peptide contains a larger amount of α-helix structure than DoIIZK and IIZKDo peptides that preferentially contain β-turn, as can be appreciated in the Raman spectroscopy signatures of the three peptides.
Raman spectroscopy measurements were performed on DoIIZK, IIZDoK and IIZKDo at 5 mg/mL concentration in 1×PBS buffer or on dry powder samples after deposition on CaF2 slide. Witec Alpha 300 RA confocal Raman spectrometer equipped with Andor CCD camera (DU970N thermoelectrically cooled at −75° C.) was used to perform the Raman measurements in backscattered configuration. The samples were excited through a 50× objective (Zeiss® LD EC Epiplan-Neofluar) with linearly polarized 532 nm wavelength excitation laser. For the analysis, the spectra were cosmic rays removed, baseline subtracted with a polynomial of 5th order, and averaged after normalization to the 1450 cm^−1 peak intensity. Several Voigt functions were fitted setting the peaks at 1653±3, 1663±3 and 1680±3 cm^−1, corresponding to α-helix, β-turn and unordered β-turn respectively, with a FWHM set to a max value of 25 cm^−1. An additional peak at about 1635 cm^−1 was introduced into the fitting to account for contributions from water, lysine and isoleucine Raman shifts.^11

[2] = test system: mouse myoblast cells (C2C12); assay: Cytocompatibility of peptide nanogels, 3D culture, MTT and live/dead staining; format: cell-based
Procedure: In one embodiment, cytocompatibility of the peptide nanogels was evaluated using mouse myoblast cells (C2C12). After 24 hours of incubation, cell proliferation was tested with DoIIZK, IIZDoK, IIZKDo, IIZ(KDo)2 and IIZ(KDo)3 at a concentration of 3 mg/mL to evaluate biocompatibility. The MTT (3-(4,5-dimethylthiazol-2-yl)-2,5-diphenyltetrazolium bromide) assay was used in order to quantify the number of viable cells. In one embodiment, a standard curve for a known number of cells was also plotted. In one embodiment, the test results were compared to the positive control 2D culture. A positive indication of cytocompatibility would be the survival of the cells following incubation with the peptides. For comparison, peptides DoIIZK, IIZDoK, IIZKDo, IIZ(KDo)2 and IIZ(KDo)3 were tested as part of the study. The cytocompatibilty of all peptides tested was evaluated by quantifying the survival cells by visualising the live/dead cells using calcein AM and Ethidium bromide staining.
Poli-D Lysine (PDL) was used for 2D control. The scalebar in FIG. 35 is 200 μm. Cytocompatibility of all peptides was evaluated by quantifying the survival cells by visualising the live/dead cells using calcein AM and Ethidium homodimer staining. The live cells are stained green by calcein AM, while the dead cells are stained red by Ethidium homodimer.
For mouse myoblast cells (C2C12) culture expansion, C2C12 cells were cultured either in a T175 or T75 culture flask in complete DMEM media (10% FBS and 1% P/S). The cells were placed in a humidified incubator at 37° C., with 95% air and 5% CO2. Then they were subcultured using trypsin at approximately 80% confluence. Fresh culture media was added every 48 h to each well, after removing the previous media.
For 3D culture of mouse myoblast cells in peptide hydrogels and cell viability assay, C2C12 cells were encapsulated in peptide hydrogels in a 96-well plate.^61 Briefly, peptide solutions DopaIIZK, IIZDopaK, IIZKDopa (3 mg/mL) were added to 40 μL/well. Mouse myoblast cells (30,000 cells/well) that were re-suspended in 2×PBS were then, mixed gently with the peptide solutions. The gelation time was 1-3 min for all 5 peptides. Subsequently, the culture medium was added to the wells.
The viability of 3D cultured cells was assessed using the LIVE/DEAD Viability/Cytotoxicity Kit (ThermoFisher®, USA)^11. Calcein acetoxymethyl ester (Calcein-AM) is used to detect viable cells and ethidium homodimer-I (EthD-I) is used to detect dead cells. Briefly, staining with 2 μM of Calcein-AM and 4 μM of EthD-1 is performed after washing with Dulbecco's phosphate-buffered saline (D-PBS). After 30 minutes incubation, the staining solution was discarded, and 1×D-PBS was added to each well before imaging. Stained cells were imaged with an inverted confocal microscope (Zeiss® LSM 710 Inverted Confocal Microscope, Germany) or ZEISS® fluorescent microscope.

Structure (SMILES)	Disordered structure Area % [1]	α-helix Area % [1]	β-turn Area % [1]	biocompatibility with C2C12 cells [2]	cell viability / toxicity [2]	metabolic activity of cells versus 2D cultures [2]	time cells stay metabolically active in nanogel [2]
CC[C@H](C)[C@H](NC(=O)[C@H](Cc1ccc(O)c(O)c1)NC(C)=O)C(=O)N[C@H](C(=O)N[C@@H](CC1CCCCC1)C(=O)N[C@@H](CCCCN)C(N)=O)[C@@H](C)CC [DoIIZK, Ac-Dopa-Ile-Ile-Cha-Lys-NH2] (Ac-[Dopa]II[Cha]K-NH2)	1687; 22%	1650; 13%	1665; 65%	biocompatible	good viability	consistently comparable to 2D cultures	metabolically active for up to day 21
CC[C@H](C)[C@H](NC(C)=O)C(=O)N[C@H](C(=O)N[C@@H](CC1CCCCC1)C(=O)N[C@@H](Cc1ccc(O)c(O)c1)C(=O)N[C@@H](CCCCN)C(N)=O)[C@@H](C)CC [IIZDoK, Ac-Ile-Ile-Cha-Dopa-Lys-NH2] (Ac-II[Cha][Dopa]K-NH2)	1690; 16%	1656; 40%	1666; 44%	biocompatible	good viability	consistently comparable to 2D cultures	metabolically active for up to day 21
CC[C@H](C)[C@H](NC(C)=O)C(=O)N[C@H](C(=O)N[C@@H](CC1CCCCC1)C(=O)N[C@@H](CCCCN)C(=O)N[C@@H](Cc1ccc(O)c(O)c1)C(N)=O)[C@@H](C)CC [IIZKDo, Ac-Ile-Ile-Cha-Lys-Dopa-NH2] (Ac-II[Cha]K[Dopa]-NH2)	1690; 18%	1658; 18%	1666; 64%	biocompatible	good viability	consistently comparable to 2D cultures	metabolically active for up to day 21
